Patent publication US20240368232A1, “ANTIVIRAL LARAZOTIDE DERIVATIVES” (priority 2021, published 2024)
Where two headings read alike, the source gives them in different places. Square brackets hold non-standard residues; d marks the D form. Peptide text beside a SMILES is read from it.

Legend:
[1] = test system: SARS-COV-2 SA (RG) strain
[2] = test system: SARS-COV-2 SA (RG) strain; assay: microbe, parasite or virus in culture; conditions: Severe acute respiratory syndrome coronavirus 2, Vero, read-out: Antiviral activity EC50 SA (RG) strain Vero cells

Compound	EC50 [1] [nM]	EC50 [2] [nM]
CC(=O)NCC(=O)N[C@H](Cc1ccccc1)C(=O)N[C@H](C=O)Cc1c[nH]cn1 [TRIP 5] (Ac-Gly-[dF]-His-aldehyde)	> 100000	–
CCC(CC)COC(=O)[C@H](C)N[P@](=O)(OC[C@H]1O[C@@](C#N)(c2ccc3c(N)ncnn23)[C@H](O)[C@@H]1O)Oc1ccccc1 [Remdesivir]	–	840
